Test results reported in patent US20250098680A1 (priority 2022, published 2025).

What was measured:
Phytophthora infestans [1] = format: cell-based; conditions: for effective pesticide against Phytophthora infestans (summary in words): summary of in vitro screening; for Bio-activity value Phytophthora infestans: tomato leaf discs, compound dissolved in DMSO, visual score 5 days, % from maximal value
[2] = tested on: Pseudoperonospora cubensis; experiment: Microplate-based cucumber leaf disc screening against Pseudoperonospora cubensis; format: cell-based
Method: Background: Pseudoperonospora cubensis is an obligatory pathogen from Oomycetes which is very difficult to grow on synthetic medium. Therefore, the bioactivity screening system based on leaf discs prepared from detached cucumber leaves were used.
Summary: dihydroquinidine or dihydroquinine were dissolved in DMSO were added to cucumber leaf discs infected with Pseudoperonospora and the disease progress was monitored by visual inspection.
General description: Inoculation and maintenance on cucumber leaves, preparation of spore suspension, their growth on leaf discs in microplates and inspection by magnifying glass of Pseudoperonospora cubensis severity of infection.
• 1) Grow plants, in the growth room (27° C.), high light radiation. • 2) Use standard garden soil. • 3) Plant cucumber seeds. • 4) Add fertilizer once a week.
• 1) Put 3 (double) pieces of sterile paper in a square Petri dish. • 2) Work in sterile conditions. • 3) Use leaves from healthy plants. The leaves should be young and healthy, their size should fit to the square plate. • 4) Cut the leaves by a sterile scalpel, leaving a long stem. • 5) Add 10 ml sterile distilled water to wet the paper (the paper should be maximally wet, but without additional dripping water), discard excess of water. […]

Phytophthora infestans [3] = format: in vivo, Phytophthora infestans on tomato; conditions: tomato seedlings, greenhouse, preventative spraying, Formulation 15 or 16, four independent experiments (FIGS. 1-4)
Cucumber downey mildew = conditions: described in JP2003081945A; cited from earlier work

Row | Structure (SMILES) | effective pesticide against Phytophthora infestans (summary in words) (Phytophthora infestans [1]) | Bio-activity value Phytophthora infestans (Phytophthora infestans [1]) [%] | Bio-activity value Pseudoperonospora cubensis ([2]; cucumber leaf discs, compound dissolved in DMSO, visual score 7 days after inoculation, % from maximal value) [%] | effective pesticide against Pseudoperonospora cubensis (summary in words) ([2]; summary of in vitro screening) | efficacy of control of Phytophthora infection (Phytophthora infestans [3]) | bioactivity against Cucumber downey mildew (Cucumber downey mildew)
1 | CCC1C[N@]2CC[C@H]1C[C@H]2C(O)c1ccnc2ccc(OC)cc12 (stereo in doubt) [DIHYDROQUININE, (R)-[(2S,4S,5R)-5-ethyl-1-azabicyclo[2.2.2]octan-2-yl](6-methoxyquinolin-4-yl) methanol] | affective | 83 |  |  |  | 
2 | CCC1C[N@]2CC[C@H]1C[C@@H]2C(O)c1ccnc2ccc(OC)cc12 (stereo in doubt) [DIHYDROQUINIDINE, (S)-[(2R,4S,5R)-5-ethyl-1-azabicyclo[2.2.2]octan-2-yl](6-methoxyquinolin-4-yl) methanol] | effective | 100 | 66 | effective | up to 89.38% | 
3 | C=C[C@H]1C[N@@]2CC[C@H]1C[C@H]2[C@H](O)c1ccnc2ccc(OC)cc12 [quinine] |  |  |  |  |  | fungicidal bioactivity
